# Values quoted from earlier work in patent US6572638B1, “Method of controlling body temperature while inhibiting thermoregulatory responses” (Radiant Medical, Inc., priority 1999, dated 2003).
# System: shivering threshold
# Details: patients at normal temperature warmed until sweating then cooled until shivering occurred; Talke, et al., Anesthesiology 87(4):835-841, 1997
row,Compound,effect on shivering threshold
1,Clc1cccc(Cl)c1N=C1NCCN1 [clonidine],able to lower the shivering threshold
2,Cc1cccc([C@H](C)c2cnc[nH]2)c1C [dexmedetomidine],able to lower the shivering threshold
